Values after ≈ are worked out from the molar mass of the structure shown.
Assays:
[1] = Metabolic stability in human liver microsomes assessed as intrinsic clearance; assay type: ADME, Microsome; conditions: read-out: CLH
[2] = Lipophilicity, logD of compound; assay type: physicochemical; conditions: octanol/water
[3] = Metabolic stability in rat hepatocyte assessed as intrinsic clearance; assay type: ADME, tissue-based; conditions: hepatocytes
[4] = Volume of distribution at steady state in Han Wistar rat at 0.5 mg/kg, iv or 1 mg/kg, po; assay type: ADME, organism-based; conditions: in vivo, read-out: Vdss
[5] = Unbound clearance in Han Wistar rat at 0.5 mg/kg, iv or 1 mg/kg, po; assay type: ADME, organism-based; conditions: in vivo
[6] = Metabolic stability in human hepatocyte assessed as intrinsic clearance; assay type: ADME, tissue-based; conditions: hepatocytes
[7] = Clearance in CD-1 mouse at 0.5 mg/kg, iv or 1 mg/kg, po; assay type: ADME, organism-based; conditions: in vivo
[8] = Solubility of compound; assay type: physicochemical
[9] = Dissociation constant, pKa of the compound; assay type: physicochemical
[10] = Apparent permeability of the compound across apical to basolateral side in human Caco-2 cells at pH 6.5; assay type: ADME, cell-based; conditions: Caco-2, pH 6.5
[11] = Oral bioavailability in Han Wistar rat at 1 mg/kg; assay type: ADME, organism-based; conditions: in vivo
[12] = Clearance in Han Wistar rat at 0.5 mg/kg, iv or 1 mg/kg, po; assay type: ADME, organism-based; conditions: in vivo
[13] = Volume of distribution at steady state in CD-1 mouse at 0.5 mg/kg, iv or 1 mg/kg, po; assay type: ADME, organism-based; conditions: in vivo, read-out: Vdss
[14] = Clearance for unbound fraction in CD-1 mouse at 0.5 mg/kg, iv or 1 mg/kg, po; assay type: ADME, organism-based; conditions: in vivo
[15] = Oral bioavailability in CD-1 mouse at 1 mg/kg; assay type: ADME, organism-based; conditions: in vivo
[16] = mouse, hepatocytes

| SMILES | microsomal CLint [1] | logD [2] | CLH [3] | further results |
| --- | --- | --- | --- | --- |
| Cc1nn(-c2ccnc(Nc3ccc4c(c3)c(Cl)c(C)n4C)n2)cc1CN1CC(O)C1 | 49 µL/min/mg | 3.9 | 66 µL/min | – |
| COC(=O)c1nn(C)c2c(C)cc(Nc3nccc(-c4cc(CN(C)C)n(C)n4)n3)cc12 | – | 3.2 | 186 µL/min | – |
| CNC(=O)c1nn(C)c2ccc(Nc3nccc(-n4cc(CN(C)C)c(F)n4)n3)cc12 | 84 µL/min/mg | 2.8 | 34 µL/min | – |
| CNC(=O)c1nn(C)c2ccc(Nc3nccc(-n4cc(CN(C)C)c(OC)n4)n3)cc12 | 103 µL/min/mg | 2.3 | 21 µL/min | – |
| Cc1nnc(-c2nc(C)n3ccc(Nc4nccc(-c5cc(CN(C)C)n(C)n5)n4)cc23)o1 | 40 µL/min/mg | 2.4 | 12 µL/min | Vd [4]: 11 L/kg; CL free [5]: 787 mL/min/kg; CLH [6]: 1.9 µL/min; clearance [7]: 255 mL/min/kg; solubility [8]: 97 µM (≈ 43.1 µg/mL); pKa [9]: 7.2; Papp A→B [10]: 6.5 ×10⁻⁶ cm/s; bioavailability [11]: 5%; clearance [12]: 189 mL/min/kg; Vd [13]: 8 L/kg; CL free [14]: 955 mL/min/kg; bioavailability [15]: 7%; CLH [16]: 44 µL/min |
| CNC(=O)c1ncn2ccc(Nc3nccc(-n4cc(CN(C)C)cn4)n3)cc12 | 9 µL/min/mg | 1.4 | 34 µL/min | – |
| CNC(=O)c1nn(C)c2ccc(Nc3nccc(-c4cc(CN(C)C)n(C)n4)n3)cc12 | 93 µL/min/mg | 2.2 | 51 µL/min | pKa [9]: 7.3 |
| CNC(=O)c1nn(C)c2c(C)cc(Nc3nccc(-n4cc(CN(C)C)cn4)n3)cc12 | 32 µL/min/mg | 2.3 | 49 µL/min | – |
| CNC(=O)c1nn(C)c2ccc(Nc3nccc(-n4cc(CN5CC(O)C5)c(C)n4)n3)cc12 | 78 µL/min/mg | 1.9 | 19 µL/min | pKa [9]: 8.6 |
| Cc1nnc(-c2nn(C)c3ccc(Nc4nccc(-c5cc(CN(C)C)n(C)n5)n4)cc23)o1 | – | 2.6 | 14 µL/min | – |
| CNC(=O)c1nc(C)n2ccc(Nc3nccc(-n4cc([C@@H]5C[C@H](O)CN5C)cn4)n3)cc12 | 110 µL/min/mg | 2 | 17 µL/min | pKa [9]: 7.9 |
| CNC(=O)c1nn(C)c2ccc(Nc3nccc(-n4cc(CN(C)C)cn4)n3)cc12 | 52 µL/min/mg | 1.8 | 31 µL/min | Vd [4]: 1.1 L/kg; CL free [5]: 250 mL/min/kg; CLH [6]: 21 µL/min; solubility [8]: 909 µM (≈ 369 µg/mL); bioavailability [11]: 60%; clearance [12]: 8 mL/min/kg |
| CNC(=O)c1nn(C)c2c(C)cc(Nc3nccc(-c4cc(CN(C)C)n(C)n4)n3)cc12 | 106 µL/min/mg | 2.6 | 64 µL/min | – |
| CNC(=O)c1nc(C)n2ccc(Nc3nccc(-n4cc([C@@H]5C[C@@H](F)CN5C)cn4)n3)cc12 | 278 µL/min/mg | – | 31 µL/min | – |
| CN(C)Cc1cnn(-c2ccnc(Nc3ccc4c(c3)c(C(=O)N(C)C)nn4C)n2)c1 | 43 µL/min/mg | 1.7 | 33 µL/min | – |

— ChEMBL document CHEMBL4673232, “Optimization of a series of potent, selective and orally bioavailable SYK inhibitors” (Bioorg Med Chem Lett, 2020)
